The source of these data is patent publication US20240315991A1, “USES OF HNF4 ALPHA AGONISTS” (Sanford Burnham Prebys Medical Discovery Institute, priority 2023, published 2024).

In one data set the test system is IL-6 protein. Nature of the data set: ELISA of culture media of primary human hepatocytes, IL-6. Format: cell-based. The following applies: HEP-fat media, NCT 5, 15, and 40 μM, FIG. 5D. The protocol:
(§1) Primary human hepatocytes. Experiments with primary human hepatocytes were performed by CN-Bio (Cambridge, UK). Briefly, primary human hepatocytes (PHHs), human Kupffer cells (HKs) and human stellate cells (HSCs) were seeded onto CN-Bio's PhysioMimix LC12 MPS culture plates at 6×10^5 cells for PHHs and 6×10^4 cells for HKs and HSCs in 1.6 ml of CN-Bio's HEP-lean media with 5% FCS. Throughout the experiment the cells were maintained at a flow rate of 1 μl/s. After 24 hours (Day 1) of seeding, the media was changed to HEP-lean media and the cells were incubated until day 4 to allow the cells to form microtissues. At day 4 post seeding, media was changed to HEP-fat media and treated with DMSO or NCT (5, 15, and 40 μM). Media was replaced on days 6 and 8. Cells were harvested on day 10 for RNA extraction and culture media was collected for ELISA analysis.
Background: In an ELISA, binding on a coated surface is turned into a signal by an enzyme label.

Data set [1] deals with blood alanine transaminase (ALT). Briefly: Liver profile analysis, blood ALT. Format: in vivo, mouse. The following applies: mice fed on HFD, HFD+NCT vs HFD, FIG. 5I. The protocol:
(§2) NCT oral administration. Four-week-old male C57BL/6J (JAX cat #000664) mice were purchased from Jackson laboratory and were maintained in a 12 h light/dark cycle throughout the experiment. Prior to the experiments, mice were acclimated for 2 weeks. Six-week-old mice with similar body weights were randomized to a normal diet (NC), a high fat diet (HFD) (Research Diets, cat #D12492 60 kcal % fat) or HFD containing 4000 ppm NCT (HFD+NCT) (Research Diets, 60 kcal % fat+4000 ppm NCT), which was calculated to provide approximately 400 mg/kg/d NCT. HFD chow containing NCT was made with gray dye to distinguish it from regular HFD chow that had green dye. Mice for each treatment group were placed in separate cages. Equal amounts of fresh chow were provided every week to all mice. Body weight gain and food intake were measured every week for 10 weeks. After 10 weeks of chow treatment, mice were sacrificed for analysis. […]
Liver profile analysis. […] The levels of multiple analytes, including alkaline phosphatase (ALP), alanine aminotransferase (ALT), gamma glutamyl transferase (GGT), bile acids (BA), total bilirubin (TBIL), albumin (ALB), blood urea nitrogen (BUN), total cholesterol (CHOL) were quantified using a VetScan VS2 Chemistry Analyzer (Abaxis North America, USA).

For data set [2], the system named is Sirt1 mRNA. Briefly: RT-PCR of primary human hepatocytes, Sirtuin1. Format: cell-based. The following applies: HEP-fat media, NCT 5, 15, and 40 μM, FIG. 4G. How it is done:
as §1
(§3) RT-PCR. […] Quantitative real time PCR (RT-PCR) analysis was performed using SYBR® Select Master Mix (Applied Biosystems) and an ABI 7900HT thermal cycler (Applied Biosystems, Thermo Fisher Scientific). Ct values were normalized to 18s rRNA and are expressed as fold change over samples from mice fed NC or cultured human hepatocytes without NCT.

In data set [3] the test system is Sirt1 mRNA. Briefly: RT-PCR of mouse liver, Sirtuin1. Format: in vivo. The following applies: HFD+NCT vs HFD, FIG. 4D. The protocol: as §2, §3
A further data set relates to IL-6 mRNA. Briefly: RT-PCR of mouse liver, IL-6. The following applies: HFD+NCT vs HFD, FIG. 5A. Format: in vivo. How it is done: as §2, §3
For another data set, the system named is nitric oxide (NO). Nature of the data set: Nitric oxide assay in mouse liver. Format: in vivo. The following applies: HFD+NCT vs HFD, FIG. 5G. The protocol: as §2
T6PNE cells were maintained in RPMI (5.5 mM glucose, Corning) supplemented with 10% fetal bovine serum (FBS, Sigma-Aldrich) and 1% penicillin-streptomycin (pen-strep, Gibco) in 5% CO2 at 37° C. […] NO was measured with the QuantiChrom Nitric Oxide Assay kit (D2NO-100, BioAssay Systems). […] Samples and standard from kit were incubated with reagents for 20 min at 60° C. and measured OD 540 nm.

In data set [4] the test system is mice maintained on a 60% fat calorie diet. The following applies: intraperitoneal injection for 2 weeks; cited from earlier work.
The target of a further data set is T1, HNF4α (Homo sapiens, UniProt P41235).
T1 sequence (P41235 1-474): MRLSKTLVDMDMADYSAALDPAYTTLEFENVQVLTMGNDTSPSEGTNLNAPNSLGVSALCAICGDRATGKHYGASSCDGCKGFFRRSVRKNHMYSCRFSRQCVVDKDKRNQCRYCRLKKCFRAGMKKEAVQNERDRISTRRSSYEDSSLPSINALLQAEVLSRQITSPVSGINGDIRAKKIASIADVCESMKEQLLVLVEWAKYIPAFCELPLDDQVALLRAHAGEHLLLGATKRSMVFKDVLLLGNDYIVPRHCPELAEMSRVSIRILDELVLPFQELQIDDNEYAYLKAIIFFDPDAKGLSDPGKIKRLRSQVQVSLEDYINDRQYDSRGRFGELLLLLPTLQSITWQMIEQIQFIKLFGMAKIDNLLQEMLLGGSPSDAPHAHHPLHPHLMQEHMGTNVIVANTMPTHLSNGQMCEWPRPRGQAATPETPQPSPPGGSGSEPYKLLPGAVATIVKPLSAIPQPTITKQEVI
The following applies: cited from earlier work.

For the molecule `O=C(/C=C/c1ccc(O)c(O)c1)NCCc1ccc(O)cc1` [NCT, N-trans caffeoyltyramine], the “IL-6 protein level secreted by cultured human hepatocytes” value with IL-6 protein is listed as “decrease”. The “blood alanine transaminase (ALT) level” value in data set [1] is listed as “decrease”. In addition, the “Sirt1 mRNA in primary human hepatocytes” value in the data set with Sirt1 mRNA [2] is recorded as “reverse the depression”. Further, the “Sirt1 mRNA in mouse liver” value in the data set on Sirt1 mRNA [3] was “reverse the depression”. The entries for the “IL-6 level in livers of mice on HFD” value with IL-6 mRNA and with IL-6 mRNA (listed as Compound A) were “decreased” and “decrease”, respectively. The “level of NO in the livers of mice fed on HFD” value in the data set with nitric oxide (NO) is reported as “decrease”. For the same molecule, the body weight loss result in data set [4] was “no body weight loss”. In data set [4], the “fat stored in liver” value is “reduce”. In addition, the “specificity for HNF4α” value at HNF4α (HNF4α siRNA ablates their effect) is recorded as “exhibit specificity for HNF4α”. Moreover, the “activation of HNF4α, potency compared with Alverine and Benfluorex” value at HNF4α is recorded as “much more potent activators”.
